# Laboratory results published in patent publication US20090181898A1, “ABUSE-RESISTANT A[…]” (SHIRE LLC, priority 2002, published 2009).
# Key:
# anesthetized dog = assay: Cardiovascular effects following intravenous injection in the anesthetized dog
# [1] = Intranasal bioavailability (LC/MS/MS); details: rat, in vivo, other: intranasal, 3 mg/kg
# rats = assay: Locomotor activity after intravenous administration; assay type: in vivo, Sprague-Dawley rats; details: rat, 1.0 mg/kg
smiles,measurement,setting,value
"CC(Cc1ccccc1)NC(=O)C(N)CCCCN [L-lysine-d-amphetamine, 2,6-diaminohexanoic acid-(1-methyl-2-phenylethyl)-amide]",SAP systolic arterial pressure,"anesthetized dog; iv 1.0 mg/kg, Time 0",105 mmHg
same,DAP % Change,"anesthetized dog; iv 1.0 mg/kg, Time 5",15%
same,DAP diastolic arterial pressure,"anesthetized dog; iv 1.0 mg/kg, Time 5",63 mmHg
same,LVP % Change,"anesthetized dog; iv 1.0 mg/kg, Time 5",11%
same,LVP left ventricular pressure,"anesthetized dog; iv 1.0 mg/kg, Time 5",120 mmHg
same,MAP % Change,"anesthetized dog; iv 1.0 mg/kg, Time 5",15%
same,MAP mean arterial pressure,"anesthetized dog; iv 1.0 mg/kg, Time 5",85 mmHg
same,SAP % Change,"anesthetized dog; iv 1.0 mg/kg, Time 5",15%
same,SAP systolic arterial pressure,"anesthetized dog; iv 1.0 mg/kg, Time 5",121 mmHg
same,DAP % Change,"anesthetized dog; iv 1.0 mg/kg, Time 15",33%
same,DAP diastolic arterial pressure,"anesthetized dog; iv 1.0 mg/kg, Time 15",73 mmHg
same,LVP % Change,"anesthetized dog; iv 1.0 mg/kg, Time 15",29%
same,LVP left ventricular pressure,"anesthetized dog; iv 1.0 mg/kg, Time 15",140 mmHg
same,MAP % Change,"anesthetized dog; iv 1.0 mg/kg, Time 15",35%
same,MAP mean arterial pressure,"anesthetized dog; iv 1.0 mg/kg, Time 15",100 mmHg
same,SAP % Change,"anesthetized dog; iv 1.0 mg/kg, Time 15",35%
same,SAP systolic arterial pressure,"anesthetized dog; iv 1.0 mg/kg, Time 15",142 mmHg
same,DAP % Change,"anesthetized dog; iv 1.0 mg/kg, Time 25",75%
same,DAP diastolic arterial pressure,"anesthetized dog; iv 1.0 mg/kg, Time 25",97 mmHg
same,LVP % Change,"anesthetized dog; iv 1.0 mg/kg, Time 25",50%
same,LVP left ventricular pressure,"anesthetized dog; iv 1.0 mg/kg, Time 25",162 mmHg
same,MAP % Change,"anesthetized dog; iv 1.0 mg/kg, Time 25",68%
same,MAP mean arterial pressure,"anesthetized dog; iv 1.0 mg/kg, Time 25",124 mmHg
same,SAP % Change,"anesthetized dog; iv 1.0 mg/kg, Time 25",55%
same,SAP systolic arterial pressure,"anesthetized dog; iv 1.0 mg/kg, Time 25",163 mmHg
same,DAP % Change,"anesthetized dog; iv 1.0 mg/kg, Time 30",32%
same,DAP diastolic arterial pressure,"anesthetized dog; iv 1.0 mg/kg, Time 30",73 mmHg
same,LVP % Change,"anesthetized dog; iv 1.0 mg/kg, Time 30",33%
same,LVP left ventricular pressure,"anesthetized dog; iv 1.0 mg/kg, Time 30",144 mmHg
same,MAP % Change,"anesthetized dog; iv 1.0 mg/kg, Time 30",32%
same,MAP mean arterial pressure,"anesthetized dog; iv 1.0 mg/kg, Time 30",98 mmHg
same,SAP % Change,"anesthetized dog; iv 1.0 mg/kg, Time 30",28%
same,SAP systolic arterial pressure,"anesthetized dog; iv 1.0 mg/kg, Time 30",134 mmHg
same,DAP % Change,"anesthetized dog; iv 5.0 mg/kg, Time 0",0%
same,DAP diastolic arterial pressure,"anesthetized dog; iv 5.0 mg/kg, Time 0",71 mmHg
same,LVP % Change,"anesthetized dog; iv 5.0 mg/kg, Time 0",0%
same,LVP left ventricular pressure,"anesthetized dog; iv 5.0 mg/kg, Time 0",144 mmHg
same,MAP % Change,"anesthetized dog; iv 5.0 mg/kg, Time 0",0%
same,MAP mean arterial pressure,"anesthetized dog; iv 5.0 mg/kg, Time 0",95 mmHg
same,SAP % Change,"anesthetized dog; iv 5.0 mg/kg, Time 0",0%
same,SAP systolic arterial pressure,"anesthetized dog; iv 5.0 mg/kg, Time 0",132 mmHg
same,DAP % Change,"anesthetized dog; iv 5.0 mg/kg, Time 5",0%
same,DAP diastolic arterial pressure,"anesthetized dog; iv 5.0 mg/kg, Time 5",71 mmHg
same,LVP % Change,"anesthetized dog; iv 5.0 mg/kg, Time 5",5%
same,LVP left ventricular pressure,"anesthetized dog; iv 5.0 mg/kg, Time 5",151 mmHg
same,MAP % Change,"anesthetized dog; iv 5.0 mg/kg, Time 5",4%
same,MAP mean arterial pressure,"anesthetized dog; iv 5.0 mg/kg, Time 5",99 mmHg
same,SAP % Change,"anesthetized dog; iv 5.0 mg/kg, Time 5",7%
same,SAP systolic arterial pressure,"anesthetized dog; iv 5.0 mg/kg, Time 5",142 mmHg
same,DAP % Change,"anesthetized dog; iv 5.0 mg/kg, Time 15",39%
same,DAP diastolic arterial pressure,"anesthetized dog; iv 5.0 mg/kg, Time 15",98 mmHg
same,LVP % Change,"anesthetized dog; iv 5.0 mg/kg, Time 15",28%
same,LVP left ventricular pressure,"anesthetized dog; iv 5.0 mg/kg, Time 15",184 mmHg
same,MAP % Change,"anesthetized dog; iv 5.0 mg/kg, Time 15",37%
same,MAP mean arterial pressure,"anesthetized dog; iv 5.0 mg/kg, Time 15",130 mmHg
same,SAP % Change,"anesthetized dog; iv 5.0 mg/kg, Time 15",33%
same,SAP systolic arterial pressure,"anesthetized dog; iv 5.0 mg/kg, Time 15",176 mmHg
same,DAP % Change,"anesthetized dog; iv 5.0 mg/kg, Time 25",−3%
same,DAP diastolic arterial pressure,"anesthetized dog; iv 5.0 mg/kg, Time 25",69 mmHg
same,LVP % Change,"anesthetized dog; iv 5.0 mg/kg, Time 25",11%
same,LVP left ventricular pressure,"anesthetized dog; iv 5.0 mg/kg, Time 25",160 mmHg
same,MAP % Change,"anesthetized dog; iv 5.0 mg/kg, Time 25",1%
same,MAP mean arterial pressure,"anesthetized dog; iv 5.0 mg/kg, Time 25",96 mmHg
same,SAP % Change,"anesthetized dog; iv 5.0 mg/kg, Time 25",−5%
same,SAP systolic arterial pressure,"anesthetized dog; iv 5.0 mg/kg, Time 25",126 mmHg
same,DAP % Change,"anesthetized dog; iv 5.0 mg/kg, Time 30",−1%
same,DAP diastolic arterial pressure,"anesthetized dog; iv 5.0 mg/kg, Time 30",70 mmHg
same,LVP % Change,"anesthetized dog; iv 5.0 mg/kg, Time 30",13%
same,LVP left ventricular pressure,"anesthetized dog; iv 5.0 mg/kg, Time 30",163 mmHg
same,MAP % Change,"anesthetized dog; iv 5.0 mg/kg, Time 30",4%
same,MAP mean arterial pressure,"anesthetized dog; iv 5.0 mg/kg, Time 30",99 mmHg
same,SAP % Change,"anesthetized dog; iv 5.0 mg/kg, Time 30",0%
same,SAP systolic arterial pressure,"anesthetized dog; iv 5.0 mg/kg, Time 30",132 mmHg
same,concentration at 0 h,[1],0 ng/mL
same,Total Activity Counts (3 h),rats,767
same,"Activity above baseline, Percent Amp",rats; 3 h,34%
same,Total Activity Counts Above Baseline,rats; 3 h,463
